Source: ChEMBL document CHEMBL3400006, “Improving the passive permeability of macrocyclic peptides: Balancing permeability with other physicochemical properties” (Bioorg Med Chem, 2015)
≈ marks a conversion by molar mass, not a printed value. Square brackets hold non-standard residues; d marks the D form. Peptide text beside a SMILES is read from it. 2Pal = N[C@@H](Cc1ccccn1)C(=O)O; 4Pal = N[C@@H](Cc1ccncc1)C(=O)O

Experiments:
[1] = Lipophilicity, log D of the compound at pH 7.4 by ChromlogD analysis; assay type: physicochemical; conditions: buffer
[2] = Solubility of the compound in phosphate buffer at pH 7.4 by chemi-luminescent nitrogen detection method; assay type: physicochemical
[3] = Permeability of the compound at donor pH 7.4 and acceptor pH 7.4 after 3 hrs incubation by PAMPA analysis; assay type: ADME; conditions: read-out: permeability

SMILES | chromatographic logD [1] | solubility [2] [µM] | Papp at 3 h [3] [×10⁻⁶ cm/s]
CC(C)C[C@@H]1NC(=O)[C@@H](CC(C)C)N(C)C(=O)[C@H](CC(C)C)NC(=O)[C@H](Cc2ccc(O)cc2)NC(=O)[C@@H]2CCCN2C(=O)[C@H](CC(C)C)NC1=O | 6.19 | 192 (≈ 140 µg/mL) | 14.4
CC(C)C[C@@H]1NC(=O)[C@H](Cc2ccc(O)cc2)NC(=O)[C@@H]2CCCN2C(=O)[C@H](CC(C)C)NC(=O)[C@H](CC(C)C)N(C)C(=O)[C@@H](CC(C)C)N(C)C1=O | 7.52 | 103 (≈ 76.3 µg/mL) | 34.7
CC(C)C[C@@H]1NC(=O)[C@H](Cc2ccc(O)cc2)N(C)C(=O)[C@@H]2CCCN2C(=O)[C@H](CC(C)C)NC(=O)[C@H](CC(C)C)N(C)C(=O)[C@@H](CC(C)C)N(C)C1=O | 8.32 | 53.7 (≈ 40.5 µg/mL) | –
CC(C)C[C@@H]1NC(=O)[C@H](Cc2ccc(O)cc2)NC(=O)[C@@H]2CCCN2C(=O)[C@H](CC(C)C)NC(=O)[C@](C)(CC(C)C)NC(=O)[C@@H](CC(C)C)NC1=O | 6.56 | 78 (≈ 56.7 µg/mL) | 35
CC(C)C[C@@H]1NC(=O)[C@@H](CC(C)C)NC(=O)[C@](C)(CC(C)C)NC(=O)[C@H](Cc2ccc(O)cc2)NC(=O)[C@@H]2CCCN2C(=O)[C@H](CC(C)C)NC1=O | 6.11 | 148 (≈ 108 µg/mL) | 17
CC(C)C[C@@H]1NC(=O)[C@@H](CC(C)C)NC(=O)[C@H]([C@@H](C)O)NC(=O)[C@H](Cc2ccc(O)cc2)NC(=O)[C@@H]2CCCN2C(=O)[C@H](CC(C)C)NC1=O | 4.65 | 372 (≈ 261 µg/mL) | < 0.65
CC(C)C[C@@H]1NC(=O)[C@H](Cc2ccc(O)cc2)NC(=O)[C@@H]2CCCN2C(=O)[C@H](CC(C)C)NC(=O)[C@H](CC(C)C)NC(=O)[C@H](Cc2ccccc2)NC1=O (cyclo(FLLPYL)) | 6.05 | 206 (≈ 153 µg/mL) | 20
CC(C)C[C@@H]1NC(=O)[C@H](Cc2ccc(O)cc2)NC(=O)[C@@H]2CCCN2C(=O)[C@H](CC(C)C)NC(=O)[C@H](CC(C)C)NC(=O)[C@H](Cc2ccccn2)NC1=O (cyclo([2Pal]LLPYL)) | 4.75 | 485 (≈ 363 µg/mL) | 1.35
CC(C)C[C@@H]1NC(=O)[C@H](Cc2ccc(O)cc2)NC(=O)[C@@H]2CCCN2C(=O)[C@H](CC(C)C)NC(=O)[C@H](CC(C)C)NC(=O)[C@H](Cc2ccncc2)NC1=O (cyclo([4Pal]LLPYL)) | 4.45 | 451 (≈ 337 µg/mL) | < 0.65

Other lines, results leading:

chromatographic logD [1] | solubility [2] [µM] | Papp at 3 h [3] [×10⁻⁶ cm/s] | SMILES
5.53 | 170 (≈ 121 µg/mL) | – | CC(C)C[C@@H]1NC(=O)[C@H](Cc2ccc(O)cc2)NC(=O)[C@@H]2CCCN2C(=O)[C@H](CC(C)C)NC(=O)[C@H](CC(C)C)NC(=O)[C@@H](CC(C)C)NC1=O
5.57 | 248 (≈ 177 µg/mL) | – | CC(C)C[C@@H]1NC(=O)[C@@H](CC(C)C)NC(=O)[C@@H](CC(C)C)NC(=O)[C@H](Cc2ccc(O)cc2)NC(=O)[C@H]2CCCN2C(=O)[C@@H](CC(C)C)NC1=O
5.98 | 51.7 (≈ 42.7 µg/mL) | 13 | CC(C)C[C@@H]1NC(=O)[C@@H](CC(C)C)NC(=O)[C@H](CC(C)C)NC(=O)[C@@H](CC(C)C)NC(=O)[C@H](Cc2ccc(O)cc2)NC(=O)[C@@H]2CCCN2C(=O)[C@H](CC(C)C)NC1=O
6.65 | 102 (≈ 86.1 µg/mL) | 30.3 | CC(C)C[C@@H]1NC(=O)[C@@H](CC(C)C)NC(=O)[C@H](CC(C)C)NC(=O)[C@@](C)(CC(C)C)NC(=O)[C@H](Cc2ccc(O)cc2)NC(=O)[C@@H]2CCCN2C(=O)[C@H](CC(C)C)NC1=O
6.88 | 122 (≈ 103 µg/mL) | 18.5 | CC(C)C[C@@H]1NC(=O)[C@@H](CC(C)C)NC(=O)[C@H](Cc2ccc(O)cc2)NC(=O)[C@@H]2CCCN2C(=O)[C@H](CC(C)C)NC(=O)[C@](C)(CC(C)C)NC(=O)[C@@H](CC(C)C)NC1=O
7.21 | 28.5 (≈ 23.9 µg/mL) | 30 | CC(C)C[C@@H]1NC(=O)[C@@H](CC(C)C)NC(=O)[C@H](CC(C)C)NC(=O)[C@@](C)(CC(C)C)NC(=O)[C@@H](Cc2ccc(O)cc2)NC(=O)[C@@H]2CCCN2C(=O)[C@H](CC(C)C)NC1=O
4.2 | 371 (≈ 260 µg/mL) | 1.05 | CC(C)C[C@@H]1NC(=O)[C@@H](CC(C)C)NC(=O)[C@@H]([C@H](C)O)NC(=O)[C@H](Cc2ccc(O)cc2)NC(=O)[C@@H]2CCCN2C(=O)[C@H](CC(C)C)NC1=O
5.07 | 324 (≈ 231 µg/mL) | – | CC(C)C[C@@H]1NC(=O)[C@H](CC(C)C)NC(=O)[C@@H](CC(C)C)NC(=O)[C@H](Cc2ccc(O)cc2)NC(=O)[C@@H]2CCCN2C(=O)[C@H](CC(C)C)NC1=O
